Experimental findings from ChEMBL document CHEMBL1201862, “PubChem BioAssay data set” (2004) are described below.

Calls of active or inactive are those of the source. Where only a bound is given, the exact number is not on record here.

The target of assay [1] is Peroxisome proliferator-activated receptor gamma/Nuclear receptor coactivator 2 (Homo sapiens, UniProt P37231). The class given is functional.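 Note: agonist potency for raising coactivator recruitment to the receptor.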
The target of assay [2] is Peroxisome proliferator-activated receptor gamma/Nuclear receptor coactivator 1 (Homo sapiens, UniProt P37231). The class given is functional.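 Note: agonist potency as compounds enhance coactivator SRC-1 recruitment to PPARgamma.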
Peroxisome proliferator-activated receptor gamma/Nuclear receptor coactivator 1, sequence (P37231 whole entry): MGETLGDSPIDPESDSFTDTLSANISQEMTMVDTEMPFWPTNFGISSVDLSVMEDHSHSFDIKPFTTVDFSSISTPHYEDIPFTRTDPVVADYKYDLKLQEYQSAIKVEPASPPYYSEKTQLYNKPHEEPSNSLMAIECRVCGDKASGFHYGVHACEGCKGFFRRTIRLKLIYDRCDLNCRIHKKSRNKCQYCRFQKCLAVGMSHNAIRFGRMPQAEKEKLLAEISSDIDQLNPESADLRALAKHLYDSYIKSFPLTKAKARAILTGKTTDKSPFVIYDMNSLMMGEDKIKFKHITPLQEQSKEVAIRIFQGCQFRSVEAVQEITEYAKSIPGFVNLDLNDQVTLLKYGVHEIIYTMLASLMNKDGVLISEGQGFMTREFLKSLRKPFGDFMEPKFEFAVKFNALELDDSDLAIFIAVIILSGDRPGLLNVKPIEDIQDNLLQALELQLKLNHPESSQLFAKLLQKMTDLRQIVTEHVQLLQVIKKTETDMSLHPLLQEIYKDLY
Peroxisome proliferator-activated receptor gamma/Nuclear receptor coactivator 1, sequence (Q15788 whole entry, further chain): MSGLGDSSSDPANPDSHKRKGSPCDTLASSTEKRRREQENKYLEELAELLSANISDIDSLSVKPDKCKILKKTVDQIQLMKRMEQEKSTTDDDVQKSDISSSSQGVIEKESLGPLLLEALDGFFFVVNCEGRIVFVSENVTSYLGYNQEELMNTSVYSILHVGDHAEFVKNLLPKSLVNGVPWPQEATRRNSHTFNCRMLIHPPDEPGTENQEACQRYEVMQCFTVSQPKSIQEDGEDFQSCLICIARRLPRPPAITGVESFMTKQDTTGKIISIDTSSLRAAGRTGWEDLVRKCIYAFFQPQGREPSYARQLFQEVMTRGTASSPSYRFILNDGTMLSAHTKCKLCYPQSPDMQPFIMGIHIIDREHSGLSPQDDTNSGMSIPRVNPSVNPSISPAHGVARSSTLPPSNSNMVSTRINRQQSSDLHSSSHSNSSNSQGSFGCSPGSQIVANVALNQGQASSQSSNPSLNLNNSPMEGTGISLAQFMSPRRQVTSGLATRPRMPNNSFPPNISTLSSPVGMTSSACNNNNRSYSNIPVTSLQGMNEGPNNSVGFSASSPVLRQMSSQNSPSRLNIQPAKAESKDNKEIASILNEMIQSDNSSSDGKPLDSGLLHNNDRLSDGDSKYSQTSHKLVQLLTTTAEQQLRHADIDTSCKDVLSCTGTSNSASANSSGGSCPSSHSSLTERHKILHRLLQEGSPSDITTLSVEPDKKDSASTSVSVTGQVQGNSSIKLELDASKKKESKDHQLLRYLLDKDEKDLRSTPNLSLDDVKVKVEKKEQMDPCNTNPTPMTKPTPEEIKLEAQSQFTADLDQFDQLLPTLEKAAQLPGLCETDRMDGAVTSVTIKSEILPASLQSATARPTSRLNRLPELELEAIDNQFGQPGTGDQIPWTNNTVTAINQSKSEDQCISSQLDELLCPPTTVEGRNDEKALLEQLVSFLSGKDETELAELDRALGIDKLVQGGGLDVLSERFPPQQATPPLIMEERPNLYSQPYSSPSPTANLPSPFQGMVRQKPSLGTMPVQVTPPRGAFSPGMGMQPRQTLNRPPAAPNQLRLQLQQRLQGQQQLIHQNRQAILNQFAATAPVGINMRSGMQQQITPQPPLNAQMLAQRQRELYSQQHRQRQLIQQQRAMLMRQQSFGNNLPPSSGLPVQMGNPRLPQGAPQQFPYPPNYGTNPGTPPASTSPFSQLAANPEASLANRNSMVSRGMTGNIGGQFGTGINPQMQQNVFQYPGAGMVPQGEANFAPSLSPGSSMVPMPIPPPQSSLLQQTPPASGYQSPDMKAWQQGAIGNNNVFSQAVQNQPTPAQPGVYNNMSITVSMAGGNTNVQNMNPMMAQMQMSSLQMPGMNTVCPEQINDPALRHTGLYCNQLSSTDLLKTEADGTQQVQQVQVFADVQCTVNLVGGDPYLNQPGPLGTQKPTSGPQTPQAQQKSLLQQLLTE
Assay [3] concerns the target Peroxisome proliferator-activated receptor gamma/Nuclear receptor coactivator 3 (Homo sapiens, UniProt P37231). The class given is functional.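 Note: agonist potency for raising coactivator recruitment to the receptor.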
The target in a further assay is Prothrombin (Homo sapiens, UniProt P00734). The experiment in a line: Thrombin 1536 HTS Dose Response Confirmation. [Related pubchem assays: 1046 (Thrombin 1536 HTS; hits were confirmed in this assay)]. The class given is functional.
Another assay concerns the target T1, Caspase-3 (Homo sapiens, UniProt P42574).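 Note: Dose-response selectivity test against caspase-3 for candidate inhibitors of sentrin-specific proteases (SENPs).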
T1 sequence (P42574 whole entry): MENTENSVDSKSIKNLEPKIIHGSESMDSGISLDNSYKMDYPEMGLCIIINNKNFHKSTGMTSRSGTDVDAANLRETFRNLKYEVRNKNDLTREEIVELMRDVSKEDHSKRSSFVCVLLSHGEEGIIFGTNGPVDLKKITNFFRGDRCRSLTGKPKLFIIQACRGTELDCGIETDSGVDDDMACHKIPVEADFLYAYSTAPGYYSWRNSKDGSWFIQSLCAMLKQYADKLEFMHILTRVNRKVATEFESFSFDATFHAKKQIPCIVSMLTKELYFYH
The class given is functional.

For assay [4], the target named is T2, Sentrin-specific protease 7 (Homo sapiens, UniProt Q9BQF6).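 Note: Luminescence-based dose-response confirmation of ultra-high-throughput screening hits, measuring inhibition of SENP7.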
T2 sequence (Q9BQF6 whole entry): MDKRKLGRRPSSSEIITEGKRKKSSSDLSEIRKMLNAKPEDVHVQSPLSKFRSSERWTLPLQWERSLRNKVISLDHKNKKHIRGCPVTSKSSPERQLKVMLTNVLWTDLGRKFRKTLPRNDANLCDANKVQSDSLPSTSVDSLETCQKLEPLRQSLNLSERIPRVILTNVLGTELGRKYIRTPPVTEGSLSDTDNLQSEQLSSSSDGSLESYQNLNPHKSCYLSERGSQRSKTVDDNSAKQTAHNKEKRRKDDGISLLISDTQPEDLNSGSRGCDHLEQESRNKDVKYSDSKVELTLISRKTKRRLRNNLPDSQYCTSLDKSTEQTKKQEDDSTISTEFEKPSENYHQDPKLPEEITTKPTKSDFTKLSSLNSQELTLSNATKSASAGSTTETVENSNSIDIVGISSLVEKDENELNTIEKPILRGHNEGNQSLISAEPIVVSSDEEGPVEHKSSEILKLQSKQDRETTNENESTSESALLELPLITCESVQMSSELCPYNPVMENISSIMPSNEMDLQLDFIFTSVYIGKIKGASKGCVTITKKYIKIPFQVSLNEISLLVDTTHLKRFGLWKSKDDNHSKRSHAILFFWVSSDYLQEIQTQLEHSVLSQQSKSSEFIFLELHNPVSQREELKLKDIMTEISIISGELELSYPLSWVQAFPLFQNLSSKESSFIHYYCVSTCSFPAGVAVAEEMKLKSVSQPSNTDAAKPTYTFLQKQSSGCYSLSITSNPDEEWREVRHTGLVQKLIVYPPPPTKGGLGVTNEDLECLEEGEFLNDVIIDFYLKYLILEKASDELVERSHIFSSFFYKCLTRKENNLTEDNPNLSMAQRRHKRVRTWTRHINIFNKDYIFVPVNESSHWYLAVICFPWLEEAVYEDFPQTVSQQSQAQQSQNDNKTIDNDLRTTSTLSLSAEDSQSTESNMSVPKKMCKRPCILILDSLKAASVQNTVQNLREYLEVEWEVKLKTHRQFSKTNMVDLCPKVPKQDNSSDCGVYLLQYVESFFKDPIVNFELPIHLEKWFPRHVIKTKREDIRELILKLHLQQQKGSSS
Format: functional.

In assay [5] the target is T3, Sentrin-specific protease 6 (Homo sapiens, UniProt Q9GZR1).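 Note: Luminescence-based dose-response confirmatory assay of SENP6 inhibition, following up an ultra-high-throughput screen.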
T3 sequence (Q9GZR1 whole entry): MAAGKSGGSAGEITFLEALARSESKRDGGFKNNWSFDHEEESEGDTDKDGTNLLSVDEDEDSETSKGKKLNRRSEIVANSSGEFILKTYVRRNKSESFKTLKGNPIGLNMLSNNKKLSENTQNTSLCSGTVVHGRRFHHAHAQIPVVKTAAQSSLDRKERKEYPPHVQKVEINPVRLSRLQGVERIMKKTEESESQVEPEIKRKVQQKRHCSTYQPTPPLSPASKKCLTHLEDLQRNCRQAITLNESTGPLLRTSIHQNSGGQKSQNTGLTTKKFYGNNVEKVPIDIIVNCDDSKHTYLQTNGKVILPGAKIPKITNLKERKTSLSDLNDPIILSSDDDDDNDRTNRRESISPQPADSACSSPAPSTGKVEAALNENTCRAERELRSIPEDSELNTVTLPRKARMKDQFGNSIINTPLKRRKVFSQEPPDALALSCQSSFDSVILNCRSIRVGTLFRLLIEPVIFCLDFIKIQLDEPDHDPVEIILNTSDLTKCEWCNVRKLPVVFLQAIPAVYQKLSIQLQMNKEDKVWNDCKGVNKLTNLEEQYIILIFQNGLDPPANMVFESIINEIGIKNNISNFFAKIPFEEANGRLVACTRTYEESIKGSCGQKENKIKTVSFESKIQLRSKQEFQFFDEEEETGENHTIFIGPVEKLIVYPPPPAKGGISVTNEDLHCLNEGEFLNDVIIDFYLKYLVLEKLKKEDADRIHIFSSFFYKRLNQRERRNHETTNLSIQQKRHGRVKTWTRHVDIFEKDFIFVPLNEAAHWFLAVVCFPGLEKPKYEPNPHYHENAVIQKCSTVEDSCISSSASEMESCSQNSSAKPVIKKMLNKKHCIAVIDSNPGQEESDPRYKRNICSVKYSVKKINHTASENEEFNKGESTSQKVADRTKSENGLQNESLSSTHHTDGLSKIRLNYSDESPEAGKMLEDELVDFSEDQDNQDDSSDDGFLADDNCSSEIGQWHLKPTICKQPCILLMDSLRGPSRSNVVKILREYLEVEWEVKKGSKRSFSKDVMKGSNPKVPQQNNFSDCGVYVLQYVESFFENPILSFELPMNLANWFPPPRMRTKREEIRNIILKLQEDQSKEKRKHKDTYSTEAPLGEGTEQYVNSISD
Format: functional.

In assay [6] the target is T4, Sentrin-specific protease 8 (Homo sapiens, UniProt Q96LD8).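 Note: luminescence read-out of SENP8 inhibition, dose-response confirmation following an ultra-high-throughput screen.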
T4 sequence (Q96LD8 whole entry): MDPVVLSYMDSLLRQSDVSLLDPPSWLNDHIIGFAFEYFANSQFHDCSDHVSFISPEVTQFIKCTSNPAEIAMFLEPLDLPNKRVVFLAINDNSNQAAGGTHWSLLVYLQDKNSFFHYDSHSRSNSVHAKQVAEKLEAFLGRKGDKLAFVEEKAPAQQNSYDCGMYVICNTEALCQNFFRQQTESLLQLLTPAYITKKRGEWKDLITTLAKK
The class given is functional.

Assay [7] can be described thus: A Cell Based Secondary Assay To Explore Cytotoxicity of Compounds that Sensitize Mycobacterium Tuberculosis to Beta-Lactam Antibiotics. Format: functional.
For another assay, the target named is T5, Mucolipin-3 (Homo sapiens, UniProt Q8TDD5).
T5 sequence (Q8TDD5 whole entry): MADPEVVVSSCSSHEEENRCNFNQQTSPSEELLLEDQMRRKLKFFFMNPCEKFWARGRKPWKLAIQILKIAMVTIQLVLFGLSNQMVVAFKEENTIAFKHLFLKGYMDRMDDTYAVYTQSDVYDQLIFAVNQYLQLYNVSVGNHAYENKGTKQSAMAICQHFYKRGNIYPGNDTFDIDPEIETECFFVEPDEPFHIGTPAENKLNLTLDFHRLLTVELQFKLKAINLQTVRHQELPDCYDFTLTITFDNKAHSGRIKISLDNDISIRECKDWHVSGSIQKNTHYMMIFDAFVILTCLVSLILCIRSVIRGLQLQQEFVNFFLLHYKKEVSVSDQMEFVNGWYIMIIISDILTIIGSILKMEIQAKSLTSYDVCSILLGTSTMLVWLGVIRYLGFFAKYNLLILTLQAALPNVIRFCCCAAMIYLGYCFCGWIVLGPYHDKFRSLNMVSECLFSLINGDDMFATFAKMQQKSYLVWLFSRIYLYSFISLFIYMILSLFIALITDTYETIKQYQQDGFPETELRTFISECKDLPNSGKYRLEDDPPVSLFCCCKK
The experiment in a line: Dose response cell-based high-throughput screening assay for agonists of the transient receptor potential channel ML3 (TRPML3). [Related pubchem assays: 1526, 1424, 1448 ]. The class given is functional.

For another assay, the target named is Ion channel NompC (Danio rerio, UniProt Q7T1G6). Description: Fluorescence counterscreen assay for TRPML3 agonists: dose response cell-based high-throughput screening assay to identify agonists of the transient receptor potential channel N1 (TRPN1). [Related pubchem assays: 1526, 1424, 1448 ]. The class given is functional. On the technique in general: The purpose of a counterscreen is to sort out artefacts and off-target activity.

Assay [8] addresses T6, Mannose-6-phosphate isomerase (Homo sapiens, UniProt P34949).
T6 sequence (P34949 whole entry): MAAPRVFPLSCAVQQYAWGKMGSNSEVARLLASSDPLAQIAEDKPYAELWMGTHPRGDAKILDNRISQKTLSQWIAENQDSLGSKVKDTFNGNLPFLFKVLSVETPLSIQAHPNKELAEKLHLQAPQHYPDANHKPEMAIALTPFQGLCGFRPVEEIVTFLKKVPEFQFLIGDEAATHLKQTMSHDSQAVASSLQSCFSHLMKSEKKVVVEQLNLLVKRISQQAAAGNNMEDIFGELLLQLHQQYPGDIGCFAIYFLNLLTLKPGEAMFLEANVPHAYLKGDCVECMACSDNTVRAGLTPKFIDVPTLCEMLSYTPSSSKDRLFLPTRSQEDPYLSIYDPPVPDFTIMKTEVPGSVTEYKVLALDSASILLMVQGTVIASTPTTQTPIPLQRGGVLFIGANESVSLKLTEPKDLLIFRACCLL
The experiment in a line: inhibitors of human PMI, primary screen, biochemical, fluorescence intensity, coupled assay (AID 1209).

The nature of assay [9]: inhibitors of firefly luciferase expression or activity, dose response, H4 neuroglioma cells, luminescence (AID 1990). Format: functional, cell-based.
A short description of assay [10]: luciferase reporter signal reduction – luminescence, H4-C neuroglioblastoma cells, dose response (AID 2458).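 Note: H4 neuroglioblastoma cells stably carrying a luciferase reporter gene fusion.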 Format: functional, cell-based. A general note: In a reporter assay the amount or activity of a reporter protein is the signal.
A short description of the next assay: cells. Format: functional, cell-based.
Assay [11] in a line: Luminescence Cell-Based Dose Response HTS to Identify Inhibitors of 5'UTR Stem-Loop Driven Prion Protein mRNA Translation in H4 Neuroglioblastoma Cells. [Related pubchem assays: 1827 (Project Summary), 1813 (Primary HTS)]. The class given is functional.
Assay [12] can be described thus: inhibitors of SNCA 5'UTR-driven reporter translation, confirmation, H4 neuroglioma cells, luminescence (AID 1988). The class given is functional, cell-based.
A short description of assay [13]: inhibitors of SNCA 5'UTR-driven translation, confirmation, luminescence, H4 neuroglioblastoma cells, dose confirmation (AID 2454).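 Note: H4 neuroglioblastoma cells carrying an alpha-synuclein 5'UTR luciferase reporter; potency for inhibition of the luciferase signal.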 Format: functional, cell-based.

The term EC50 denotes the concentration at which the effect is half-maximal. The term IC50 denotes the concentration that inhibits the measured activity by half. Usually CC50 stands for the concentration at which the toxic effect on the cells reaches its halfway point.

Peroxisome proliferator-activated receptor gamma/Nuclear receptor coactivator 3, sequence (P37231 whole entry): as the sequence (P37231 whole entry) above
Peroxisome proliferator-activated receptor gamma/Nuclear receptor coactivator 3, sequence (Q9Y6Q9 whole entry, further chain): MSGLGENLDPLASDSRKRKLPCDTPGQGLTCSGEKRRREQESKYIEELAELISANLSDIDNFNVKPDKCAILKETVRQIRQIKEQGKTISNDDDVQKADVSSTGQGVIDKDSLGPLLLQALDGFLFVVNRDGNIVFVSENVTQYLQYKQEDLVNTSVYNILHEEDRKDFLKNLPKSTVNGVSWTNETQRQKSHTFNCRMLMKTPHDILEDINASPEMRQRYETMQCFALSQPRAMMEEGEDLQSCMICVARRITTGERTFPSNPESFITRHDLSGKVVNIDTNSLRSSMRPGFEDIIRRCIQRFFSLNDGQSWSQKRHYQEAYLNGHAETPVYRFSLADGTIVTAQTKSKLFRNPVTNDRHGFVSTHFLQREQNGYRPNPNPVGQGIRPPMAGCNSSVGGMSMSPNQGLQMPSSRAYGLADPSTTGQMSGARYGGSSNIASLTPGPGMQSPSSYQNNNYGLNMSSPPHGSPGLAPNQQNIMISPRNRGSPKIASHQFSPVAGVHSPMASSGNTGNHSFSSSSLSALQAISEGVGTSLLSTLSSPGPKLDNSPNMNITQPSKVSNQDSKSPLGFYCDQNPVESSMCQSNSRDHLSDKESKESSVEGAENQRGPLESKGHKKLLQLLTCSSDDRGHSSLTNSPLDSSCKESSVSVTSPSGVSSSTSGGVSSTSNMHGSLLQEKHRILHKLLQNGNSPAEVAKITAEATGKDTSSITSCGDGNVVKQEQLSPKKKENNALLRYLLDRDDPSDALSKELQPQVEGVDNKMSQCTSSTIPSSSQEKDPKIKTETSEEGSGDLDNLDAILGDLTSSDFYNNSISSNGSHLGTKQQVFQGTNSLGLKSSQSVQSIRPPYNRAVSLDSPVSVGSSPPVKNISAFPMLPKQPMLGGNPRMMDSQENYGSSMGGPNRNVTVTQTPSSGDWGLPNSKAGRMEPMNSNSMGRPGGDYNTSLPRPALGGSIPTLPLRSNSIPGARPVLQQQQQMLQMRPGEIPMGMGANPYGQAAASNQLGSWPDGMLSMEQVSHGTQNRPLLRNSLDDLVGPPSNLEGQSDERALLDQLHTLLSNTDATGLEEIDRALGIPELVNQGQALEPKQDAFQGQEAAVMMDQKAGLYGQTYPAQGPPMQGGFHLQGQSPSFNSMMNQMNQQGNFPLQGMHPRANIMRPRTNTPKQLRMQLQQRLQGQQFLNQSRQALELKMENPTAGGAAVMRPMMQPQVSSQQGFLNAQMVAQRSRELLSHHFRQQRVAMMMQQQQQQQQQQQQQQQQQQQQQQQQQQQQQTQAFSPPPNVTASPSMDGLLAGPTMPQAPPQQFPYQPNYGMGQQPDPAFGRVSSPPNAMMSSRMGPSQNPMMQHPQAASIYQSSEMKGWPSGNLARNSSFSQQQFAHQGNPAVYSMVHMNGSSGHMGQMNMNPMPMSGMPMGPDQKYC

As to `COc1cccc(/C=N/NC(=O)c2csc(-n3nc(C)cc3C(F)(F)F)n2)c1`, the EC50 in [1], in assay [2] and in assay [3] was > 79.4 µM (not active) in each case.
As to `Cc1cccc(C(=O)Nc2sc(C)c(-c3ccccc3)c2C#N)c1`, the IC50 at Prothrombin is > 50 µM (not active); at Caspase-3 it was 38.5 µM (active); in [4], 7.15 µM (active); in assay [5] it was > 100 µM (inactive); in assay [6] it was > 100 µM (inactive).
On to `N#Cc1ccccc1/C=N/Nc1nc(-c2ccccc2)c2cc(Br)ccc2n1`, for which the CC50 in [7] was > 40 µM (active).
For `CCN(C1CCCCC1)S(=O)(=O)c1cc(C)ccc1OC`, the EC50 at Mucolipin-3 is 3.39 µM (active); at Ion channel NompC, > 29.9 µM (not active).
`O=C1COc2ccc(C(=O)/C=C/c3ccccc3)cc2N1`: the CC50 in assay [7] is 21.5 µM (active).
Regarding `CCC(Oc1cc(Cl)ccc1Cl)C(=O)NN1C(=O)C2C3CCC(C3=C(C)C)C2C1=O` (stereo not given), the EC50 on Mucolipin-3 was 3.99 µM (active); on Ion channel NompC, 23.7 µM (not active).
Take `Cc1ccc(N2C(=O)CC(Sc3nc[nH]n3)C2=O)cc1C` (stereo not given): in assay [8], the IC50 is listed as > 50 µM (not active).
As for `CN(C)S(=O)(=O)N1CCN(c2cc(Cl)ccc2Cl)CC1`, the EC50 was 26.5 µM (not active) on Mucolipin-3 and > 29.9 µM (not active) at Ion channel NompC.
Take `CSc1ccccc1NC(=O)Cn1c(-c2cscn2)nc2ccccc21`: the EC50 in assay [1], in assay [2] and in assay [3] was > 79.4 µM (not active) throughout.
As to `CCC(C)Nc1nc(N)c([N+](=O)[O-])c(NC2CCCCC2)n1` (stereo not given), the EC50 in assay [9] is 13.2 µM (active); in assay [10] it was > 12 µM (not active); in “cells”, > 12 µM (not active); in assay [11], < 0.1 µM (active); in assay [12] it was 9.77 µM (active); in assay [13], > 12 µM (not active).
In the case of `O=c1[nH]c(/C=C/c2cccc(Br)c2)nc2ccccc12`, in assay [7], the CC50 was 33.4 µM (active).
For `N#Cc1ccc(/C=N/NC(=N)N)cc1`, the EC50 in assay [1], in [2] and in assay [3] was > 79.4 µM (not active) in each case.
For the compound `COc1ccc(C(=O)/N=c2\sc3ccccc3n2C)cc1OC`, the EC50 in assay [1], in [2] and in assay [3] was > 79.4 µM (not active) in each case.
Consider `CCCC(=O)Oc1c(S(=O)(=O)c2ccc(C)cc2)c(C)nn1C(C)(C)C`, for which the EC50 was 2.31 µM (active) on Mucolipin-3 and > 29.9 µM (not active) at Ion channel NompC.
